Results from publication PMC11357446, “Searching for Novel HDAC6/Hsp90 Dual Inhibitors with Anti-Prostate Cancer Activity: In Silico Screening and In Vitro Evaluation” (Pharmaceuticals, 2024).
Read-outs that look alike come from different tables or passages of the source.

Tests used:
[1] = tested on: PC-3 prostate cancer cells; assay: Cell viability assay (MTT) on PC-3 cells; format: cell-based, human; conditions: 72 h treatment, MTT, mean of three independent experiments ± SEM, read-out: PC-3 GI50
Description: The human prostate cancer cell line PC-3 (ATCC Cat# CRL-1435) was grown in Ham’s F12 (Biowest, Nuaillé, France) medium, while the human prostate cancer cell line LNCaP (ATCC Cat# CRL-1740) was grown in RPMI 1640 (Biowest, Nuaillé, France) medium. Both media were supplemented with 10% Fetal Bovine Serum (FBS, Gibco, Fisher Scientific Italia, Segrate, Italy), 2 mM glutamine, 100 U/mL penicillin, and 100 μg/mL streptomycin. PC-3 and LNCaP cells were maintained at 37 °C in a humidified 5% CO2 atmosphere.
PC-3 and LNCaP cells were seeded at a density of 4000 and 6000 cells/well into a 96-well plate, respectively, together with a calibration curve of known cell numbers. The following day, the cells were treated with the indicated test compounds at different concentrations starting at 75μM with 2-fold serial dilutions. Cell viability was evaluated after 72h by colorimetric MTT (PC-3) or PrestoBlue™ (LNCaP) cell viability reagents. A total of 0.5 mg/mL of thiazolyl blue tetrazolium bromide (MTT) (Sigma-Aldrich, St. Louis, MO, USA) in Ham’s F12 medium was added to the wells, and the plate was incubated at 37 °C for 2 h. Medium containing unconverted MTT was removed, and 100 μL of MTT solvent (4 mM HCl, 0.1% NP40, in isopropyl alcohol) was added to the wells in order to solubilize MTT crystals. After 15 min of incubation at room temperature, the absorbance values at 570 nm were obtained with a Multiskan FC Microplate Photometer (Thermo Fisher Scientific, Waltham, MA, USA). PrestoBlue reagent (#A13261, Thermo Fisher Scientific, Waltham, MA, USA) was added to the medium (1:10 v/v) and incubated for 1 h at 37 °C. Cell viability was calculated by quantifying PrestoBlue reduction by measuring the absorbance at 570 and 620 nm, according to the manufacturer’s protocol. The viability of untreated cells was arbitrarily set at 100%, and the concentration at which cellular growth is inhibited by 50% (GI50) was determined. Three independent experiments were performed.

HDAC6 recombinant enzyme = biological target: T1, HDAC6 recombinant enzyme (Homo sapiens, UniProt Q9UBN7); assay: Fluorimetric HDAC6 assay; format: biochemical; conditions: singlicate
T1 sequence (Q9UBN7 1-1215): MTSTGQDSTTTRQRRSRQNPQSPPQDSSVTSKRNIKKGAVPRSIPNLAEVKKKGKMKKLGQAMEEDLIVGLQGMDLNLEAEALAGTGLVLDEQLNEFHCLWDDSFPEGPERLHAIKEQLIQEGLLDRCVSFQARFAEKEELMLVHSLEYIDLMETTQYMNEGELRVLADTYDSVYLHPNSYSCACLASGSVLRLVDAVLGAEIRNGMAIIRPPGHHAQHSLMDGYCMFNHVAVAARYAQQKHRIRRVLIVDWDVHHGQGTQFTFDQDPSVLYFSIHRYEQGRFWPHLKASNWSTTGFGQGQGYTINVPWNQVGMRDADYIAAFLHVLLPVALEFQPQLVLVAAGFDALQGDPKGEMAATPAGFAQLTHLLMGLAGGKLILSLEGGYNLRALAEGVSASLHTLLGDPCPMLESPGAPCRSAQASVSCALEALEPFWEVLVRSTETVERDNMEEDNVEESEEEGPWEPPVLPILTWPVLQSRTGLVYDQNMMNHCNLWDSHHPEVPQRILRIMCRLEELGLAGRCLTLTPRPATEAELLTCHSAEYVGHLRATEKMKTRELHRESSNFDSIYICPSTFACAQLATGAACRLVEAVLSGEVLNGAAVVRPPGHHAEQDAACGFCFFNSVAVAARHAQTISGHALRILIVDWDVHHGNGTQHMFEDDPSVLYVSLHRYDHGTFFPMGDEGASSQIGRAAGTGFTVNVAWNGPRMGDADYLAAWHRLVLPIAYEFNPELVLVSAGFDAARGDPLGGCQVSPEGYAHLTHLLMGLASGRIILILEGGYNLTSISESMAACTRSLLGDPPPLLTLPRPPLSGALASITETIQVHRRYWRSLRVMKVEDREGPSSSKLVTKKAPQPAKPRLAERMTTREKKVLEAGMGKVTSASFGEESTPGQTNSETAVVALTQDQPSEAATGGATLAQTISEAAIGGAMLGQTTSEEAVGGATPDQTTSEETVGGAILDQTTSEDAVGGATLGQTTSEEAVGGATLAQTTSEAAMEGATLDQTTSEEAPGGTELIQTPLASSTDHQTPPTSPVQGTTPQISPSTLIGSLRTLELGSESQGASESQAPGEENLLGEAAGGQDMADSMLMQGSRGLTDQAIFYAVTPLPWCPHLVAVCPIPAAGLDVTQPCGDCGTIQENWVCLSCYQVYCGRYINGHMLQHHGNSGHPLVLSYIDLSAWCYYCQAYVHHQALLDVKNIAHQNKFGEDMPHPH
Description: In vitro assessments of compounds on the HDAC6 enzyme were performed, as described in our previous works. […] The blank employed for curve fitting was evaluated on a solution of the buffer containing a concentration of […] of DMSO. IC50 values were calculated by using the GraphPad Prism 4 program based on a sigmoidal dose–response equation.

Row | GI50 [1] [µM] | GI50 ([1]; Homo sapiens, PC-3, 72 h) [µM] | IC50 (HDAC6 recombinant enzyme) [µM] | Structure (SMILES)
1 | 51.8 ± 0.6 | ~50 | 6.5 | O=C(c1cc(OCc2ccccc2)ccc1O)N1CCC(c2noc(C(F)(F)F)n2)CC1 [Compound 8]
2 |  | 13.9 ± 2.9 | 0.005 | CC(C)[C@H](C(=O)NCc1ccc(C(=O)NO)cc1)N1Cc2ccccc2C1=O [Compound 11]
3 |  | 21 ± 5.4 | 2.7 | O=C(Nc1ncccc1O)c1ccc(-c2noc(C(F)(F)F)n2)cc1 [Compound 18]
